Data taken from US9925166B2, “Methods of treating an overweight or obese subject” (Zafgen, Inc., priority 2008, dated 2018).

Target: T1, MetAP-2 (Mus musculus, UniProt O08663)
T1 construct: from tissue; host or cells: adipose tissue of diet-induced obese mice
Test: ELISA assay of MetAP-2 binding (free MetAP-2) in adipose tissue lysates of dosed diet-induced obese mice
Method: Diet-induced obese mice were orally (p.o.) administered fumagillin (3 mg/kg or 10 mg/kg; Medivet), subcutaneously administered (s.c.) TNP-470 (1 mg/kg, 3 mg/kg, 10 mg/kg, or 30 mg/kg; synthesized by standard semi-synthetic processes as described in European Patent EP 0 357 061), or administered a solution of 10% dimethyl sulfoxide (DMSO; control; Sigma-Aldrich). Mice were sacrificed and adipose tissue samples were obtained.
An ELISA assay of MetAP-2 binding was conducted with tissue lysates prepared from the adipose tissue samples. The MetAP-2 ELISA is a quantitative assay to determine the amount of free MetAP-2 in tissue or cell lysates, i.e., MetAP-2 not covalently bound to fumagillin or TNP-470. The assay takes advantage of the fact that biotinylated fumagillin can bind to the catalytic site of the MetAP-2 enzyme only if this site has not already been derivatized by fumagillin or TNP-470. The biotinylated MetAP-2-inhibitor complex was captured on a streptavidin-coated plate and detected with a rabbit anti-MetAP-2 antibody (Zymed Laboratories Inc.). Horseradish peroxidase-conjugated anti-rabbit immunoglobulin G (IgG) was added to detect the MetAP-2 antibody immobilized to the streptavidin-coated plate with its covalently bound biotinylated fumagillin. Tetramethylbenzidine (TMB) substrate was added and the reaction was stopped by addition of sulfuric acid. Analysis was performed by determining absorption at 450 nm. Human recombinant MetAP-2 (R&D Systems), pre-bound to biotinylated fumagillin, was used to generate a standard curve.

T1 sequence (O08663 whole entry): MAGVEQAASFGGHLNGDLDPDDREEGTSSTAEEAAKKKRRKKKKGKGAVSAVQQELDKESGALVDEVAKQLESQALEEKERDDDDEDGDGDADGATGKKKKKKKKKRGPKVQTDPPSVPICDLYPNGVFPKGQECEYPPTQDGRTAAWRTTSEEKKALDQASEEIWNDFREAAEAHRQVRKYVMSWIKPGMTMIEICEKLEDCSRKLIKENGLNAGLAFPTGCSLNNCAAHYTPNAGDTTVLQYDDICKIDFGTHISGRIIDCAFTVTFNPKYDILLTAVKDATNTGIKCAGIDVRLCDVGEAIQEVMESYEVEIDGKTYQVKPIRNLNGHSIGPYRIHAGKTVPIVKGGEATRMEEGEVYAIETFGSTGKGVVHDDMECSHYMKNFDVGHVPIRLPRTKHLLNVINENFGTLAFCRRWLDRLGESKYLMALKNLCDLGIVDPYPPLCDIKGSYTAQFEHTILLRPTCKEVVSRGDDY

CO[C@@H]1[C@H](OC(=O)NC(=O)CCl)CC[C@]2(CO2)[C@H]1[C@@]1(C)O[C@@H]1CC=C(C)C [TNP-470]
binding to MetAP-2 in adipose tissue (TNP-470 subcutaneously 1, 3, 10 or 30 mg/kg, diet-induced obese mice, FIG. 1): binds MetAP-2 in a dose dependent manner
binding to MetAP-2 in adipose tissue compared to orally administered fumagillin at the same dosages (s.c. TNP-470 vs p.o. fumagillin, 3 mg/kg and 10 mg/kg): greater binding
